Source: patent US20060079461A1, “Treatment of multiple myeloma by inhibition of p38 MAP kinase” (Scios, Inc., priority 2003, published 2006)

Key:
VEGF = VEGF secretion from MM contact-activated BMSC; type: cell-based, human
Text: (§1) p38 MAPK controls secretion of these factors in-vitro in systems representing the BM milieu.

HSP-27 [1] = assay: HSP-27 phosphorylation in MM cells (p38 MAPK activity); type: cell-based, human
Protocol: (§2) Total cell lysates are immunoprecipitated with anti-MAPKAPK-2 antibody and subjected to in vitro kinase assays using purified GST-Hsp27 as substrate. To examine Hsp27 phosphorylation in MM and transformed B cells, U266, IM9 and RPMI8226 cells are incubated either with DMSO or with 0.5 μM of a p38 MAPK inhibitor and cell lysates are immunoblotted with antibodies to phospho-Hsp27 (Ser 82) and Hsp27.
In additional experiments, the p38 MAPK inhibitors are tested for their ability to inhibit Hsp27 phosphorylation. U266, IM9 and RPMI8226 cells are incubated with 0.5 μM of the p38 MAPK inhibitor for 1 hour and Hsp27 proteins are immunoprecipitated with agarose-conjugated Hsp27 antibody, followed by immunoblotting with anti-phospho Hsp27 (Ser 78) antibody.
Specific antibodies to p38 MAP kinase are from Santa Cruz Biotechnology (Santa Cruz, Calif.). Antibodies to phospho-p38 MAP kinase (T180/Y182) and phospho-Hsp27 (S82) are from Cell Signaling (Beverly, Mass.). Antibodies to Hsp27 and phospho-Hsp27 (S78) are from Upstate Biotechnology (Lake Placid, N.Y.). Anti-MAPKAPK-2 is from StressGen (San Diego, Calif.) while anti-GAPDH is from Biogenesis Ltd. (Poole, UK).

HSP-27 [2] = assay: HSP-27 phosphorylation in BMSC; type: cell-based, human
MKK3 and MKK6 = assay: Activation of p38 MAPK by upstream kinases
BMSC = BMSC viability, MTS assay; type: cell-based, human; details: tested up to 50-fold excess of active concentration
Protocol: Neither p38 MAPK inhibition nor high concentrations of p38 MAPK inhibitor (tested up to 50-fold excess of active concentration) affected BMSC viability (FIG. 4). Viability was measured using a standard enzymatic assay of respiratory activity, MTS (3-(4,5-dimethylthiazol-2-yl)-5-(3-carboxymethoxyphenyl)-2-(4-sulfophenyl)-2H-tetrazolium). Results obtained with the p38 MAPK inhibitor are in agreement with published results using a different p38α MAPK inhibitor.

[3] = test system: MM cell lines (U266B, RPMI, ARH-77, and IM9); assay: MM cell proliferation; type: cell-based, human; details: 72-hour exposure; each of four MM cell lines (U266B, RPMI, ARH-77, IM9)
TNF-α = assay: LPS-induced TNF-α secretion in whole blood; type: cell-based, human
Protocol: Other in vitro assays can assess the production of TNF-α as a correlation to p38 MAP kinase activity. One such example is a Human Whole Blood Assay. In this assay, venous blood is collected from, e.g., healthy male volunteers into a heparinized syringe and is used within 2 hours of collection. Test compounds are dissolved in 100% DMSO and 1 μl aliquots of drug concentrations ranging from 0 to 1 mM are dispensed into quadruplicate wells of a 24-well microtiter plate (Nunclon Delta SI, Applied Scientific Co., San Francisco, Calif.). Whole blood is added at a volume of 1 ml/well and the mixture is incubated for 15 minutes with constant shaking (Titer Plate Shaker, Lab-Line Instruments, Inc., Melrose Park, Ill.) at a humidified atmosphere of 5% CO2 at 37° C. Whole blood is cultured either undiluted or at a final dilution of 1:10 with RPMI 1640 (Gibco 31800+NaHCO3, Life Technologies, Rockville, Md. and Scios, Inc., Sunnyvale, Calif.). At the end of the incubation period, 10 μl of LPS (E. coli 01111:B4, Sigma Chemical Co., St. Louis, Mo.) is added to each well to a final concentration of 1 or 0.1 μg/ml for undiluted or 1:10 diluted whole blood, respectively. The incubation is continued for an additional 2 hours. The reaction is stopped by placing the microtiter plates in an ice bath, and plasma or cell-free supernates are collected by centrifugation at 3000 rpm for 10 minutes at 4° C. […]

COX-2 mRNA = assay: LPS-induced COX-2 mRNA; type: cell-based
PGE2 = PGE2 levels in LPS-induced human whole blood; type: cell-based
purified COX-2 enzyme = molecular target: T1, purified COX-2 enzyme (Homo sapiens, UniProt P35354); assay: Purified COX-2 enzyme activity; type: biochemical
T1 sequence (P35354 18-604): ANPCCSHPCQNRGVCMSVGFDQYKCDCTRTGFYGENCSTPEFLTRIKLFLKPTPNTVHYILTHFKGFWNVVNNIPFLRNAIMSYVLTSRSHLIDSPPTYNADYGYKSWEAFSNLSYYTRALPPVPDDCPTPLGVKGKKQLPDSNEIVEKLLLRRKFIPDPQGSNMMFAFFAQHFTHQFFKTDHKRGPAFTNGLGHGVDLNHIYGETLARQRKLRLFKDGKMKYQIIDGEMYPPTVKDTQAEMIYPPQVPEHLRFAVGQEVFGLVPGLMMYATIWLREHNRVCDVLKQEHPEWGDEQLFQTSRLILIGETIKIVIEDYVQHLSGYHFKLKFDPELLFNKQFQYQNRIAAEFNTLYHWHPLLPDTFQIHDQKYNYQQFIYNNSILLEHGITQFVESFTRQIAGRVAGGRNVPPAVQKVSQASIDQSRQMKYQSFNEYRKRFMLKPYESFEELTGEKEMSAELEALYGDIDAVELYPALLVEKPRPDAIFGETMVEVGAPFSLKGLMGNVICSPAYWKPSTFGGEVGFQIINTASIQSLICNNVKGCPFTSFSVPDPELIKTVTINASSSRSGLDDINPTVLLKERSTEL

IL-1β = assay: LPS-induced IL-1β release in human whole blood; type: cell-based; details: human whole blood (undiluted)
Text: IL-1β illustrates the importance of amplification loops in myeloma-induced cytokine stimulation. IL-1, plays a well-documented role in the induction of multiple cytokines in a “cytokine network” of feedback loops, including strong induction of IL-6. The ability of IL-1 to increase mRNA expression and induce secretion of the MM-relevant cytokines from MM/BMSC cultures is evidence of this role.

IL-11 [4] = assay: IL-1 and TGFβ induction of IL-11 in BMSC cultures; type: cell-based, human; details: 100 nM
Text: as §1

IL-11 [5] = assay: IL-1 and TGFβ induction of IL-11 in MM/BMSC cultures; type: cell-based, human; details: 100 nM
Text: as §1

MM cells = assay: MM cell viability and proliferation with SN-50 co-exposure; type: cell-based; details: co-exposure with SN-50
Text: SN-50 is a cell-permeable specific inhibitor of NF-kappaB nuclear translocation and activity. Nuclear factor-kappaB has been reported to confer significant survival potential in a variety of tumors, including MM cells.

MAPKAPK-2 = MAPKAPK-2 in vitro kinase assay with GST-Hsp27 substrate; type: cell-based, human
Protocol: as §2

Hsp27 = assay: Total Hsp27 levels in MM cells; type: cell-based, human; details: even after prolonged incubation
Protocol: as §2

[6] = test system: human myeloma (RPMI8266) tumor; assay: Beige-nude-xid mouse xenograft plasmacytoma model; type: in vivo
Text: Human-multiple myeloma (MM) is an incurable neoplasm of terminally differentiated B cells and MM disease progression is affected by immunoregulatory elements such as IL-6 and other cytokines. […]

multiple myeloma = assay: Treatment of a patient with multiple myeloma; type: in vivo, human
Text: A patient is diagnosed with multiple myeloma. The patient presents with MM cells with rapid growth rates, which displace osteoblasts, and disrupting the balance of bone creation and destruction. A number of MM-related cytokines, such as IL-6, VEGF, IL-11, and PGE-2 are detectable. […] MM cell growth is inhibited and MM-related cytokine product is reduced.

[7] = in combination with an apoptosis promoting agent

COC(=O)C(=O)c1cn(C(=O)c2ccc(Cl)cc2)c2cc(OC)c(C(=O)N3CCC(Cc4ccccc4)CC3)cc12 [Compound 4]
VEGF secretion (VEGF): inhibited

C[C@@H]1CN(Cc2ccc(F)cc2)[C@@H](C)CN1C(=O)c1cc2c(C(=O)C(=O)N(C)C)cn(C)c2cc1Cl [Compound 57]
phosphorylation of HSP-27 (HSP-27 [1]; MM cells): blocked phosphorylation of HSP-27 completely | Hsp27 phosphorylation (HSP-27 [1]; U266, IM9, RPMI8226, cell lysates or immunoprecipitation assays, 0.5 μM): inhibits | p38 MAPK activity (HSP-27 [1]; immunodetection of p38 MAPK kinase target HSP-27): fully suppressed | phosphorylation of HSP-27 (HSP-27 [2]): blocked phosphorylation of HSP-27 completely | direct activation of the p38 MAPK enzyme or activity of kinases upstream of p38 MAPK (MKK3 and MKK6): not the direct activation of the p38 MAPK enzyme or the activity of kinases upstream of p38 MAPK | BMSC viability (BMSC): Neither p38α MAPK inhibition nor high concentrations of Compound 57 (tested up to 50-fold excess of active concentration) affected BMSC viability | reduction in proliferation [3]: about 20% | LPS-induced TNF-α secretion (TNF-α): dose-dependent reduction | LPS-induced COX-2 mRNA (COX-2 mRNA): inhibited | PGE2 levels (PGE2): reduced | activity of the purified COX-2 enzyme (purified COX-2 enzyme): did not directly inhibit | LPS-induced IL-1β release (IL-1β): dose-dependent reduction | IL-1 and TGFβ induction of IL-11 at the mRNA and protein levels (IL-11 [4]): blocked | IL-1 and TGFβ induction of IL-11 at the mRNA and protein levels (IL-11 [5]): blocked | reduction of MM cell viability and proliferation caused by SN-50-induced NFκB inhibition (MM cells): enhances the reduction of MM cell viability and proliferation | activity of downstream substrate MAPKAPK-2 (MAPKAPK-2): suppresses | total Hsp27 levels (Hsp27): does not affect | tumor volume, histological assessment ([6]; at the end of dosing, versus vehicle): significant reduction | number of neoformed microvessels ([6]; histological assessment at the end of dosing): significant reduction | HSP27 expression in tumor cells ([6]; mouse, in vivo): significantly reduces | p38 expression in tumor cells ([6]; mouse, in vivo): significantly reduces | tumor volume ([6]; palpable tumors (~200 mm^3), 90 mg/kg/bid oral gavage, 21 days): significantly reduces | tumor volume ([6]; treatment initiated at pronounced tumor size (~800 mm^3)): significant reduction | MM cell growth (multiple myeloma; [7]): inhibited | MM-related cytokine product (multiple myeloma; [7]): reduced | MM cell growth (multiple myeloma; therapeutic amount, alone): inhibited | MM-related cytokine product (multiple myeloma; therapeutic amount, alone): reduced
